From patent US20230278984A1 (Global Blood Therapeutics, Inc., priority 2020, published 2023)

Molecular target: T1, Human pyruvate kinase R (PKR) (Homo sapiens, UniProt P30613)
T1 construct: Human pyruvate kinase R (PKR), residues 14-574; 6x-His (N, cleaved yes); 8x-Arg (N, cleaved yes); SUMO (N, cleaved yes); host or cells: E. coli
Test: Biochemical assay for activation of pyruvate kinase R (Kinase-Glo luminescence measurement of ATP generation)
Conditions: for AC50: PKR biochemical assay, 0.1 nM PKR, 0.3 mM ADP, 2 mM FBP, 0.1 mM PEP; for Emax: maximal activation level relative to the activation level achieved by the literature compound AG-348 @ 10 μM
Procedure, shortened: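 Recombinant human PKR (residues 14-574), E. coli-expressed with His-Arg-SUMO tag removed, purified by Ni-NTA, anion exchange and size exclusion. Activation measured as ATP generation via Kinase-Glo luminescence.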

T1 sequence (P30613 14-574): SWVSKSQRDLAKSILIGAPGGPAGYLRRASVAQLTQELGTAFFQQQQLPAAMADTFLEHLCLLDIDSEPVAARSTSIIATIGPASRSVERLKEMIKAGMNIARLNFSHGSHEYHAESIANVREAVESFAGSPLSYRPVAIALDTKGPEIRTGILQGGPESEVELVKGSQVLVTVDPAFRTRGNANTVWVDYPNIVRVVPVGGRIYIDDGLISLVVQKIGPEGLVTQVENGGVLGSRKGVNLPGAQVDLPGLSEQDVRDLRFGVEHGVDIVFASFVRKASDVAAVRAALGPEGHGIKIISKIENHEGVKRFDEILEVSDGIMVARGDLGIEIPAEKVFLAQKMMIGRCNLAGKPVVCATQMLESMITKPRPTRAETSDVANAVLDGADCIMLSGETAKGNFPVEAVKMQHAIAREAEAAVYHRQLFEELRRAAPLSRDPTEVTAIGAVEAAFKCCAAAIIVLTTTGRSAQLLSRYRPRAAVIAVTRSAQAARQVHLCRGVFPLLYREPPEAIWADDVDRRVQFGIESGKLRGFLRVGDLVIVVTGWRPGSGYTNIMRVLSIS

Row | SMILES | AC50 | Emax
1 | Cc1ccc(-n2ncnc2CNC(=O)NCc2ncnn2-c2ccc(C)c(F)c2)cc1F [Compound 67, 1,3-bis({[1-(3-fluoro-4-methylphenyl)-1H-1,2,4-triazol-5-yl]methyl})urea] | 44 nM | 58%
2 | Cc1ccc(-n2nnnc2CNC(=O)NCc2nnnn2C2CCCCC2)cc1C [Compound 72, 1-[(1-cyclohexyl-1H-1,2,3,4-tetrazol-5-yl)methyl]-3-{[1-(3,4-dimethylphenyl)-1H-1,2,3,4-tetrazol-5-yl]methyl}urea] | 1800 nM | 68%
3 | Cc1nc(CNC(=O)NCc2nc(C)nn2-c2ccc(Cl)cc2)n(-c2ccc(Cl)cc2)n1 [Compound 73, 1,3-bis({[1-(4-chlorophenyl)-3-methyl-1H-1,2,4-triazol-5-yl]methyl})urea] | 190 nM | 107%
4 | O=C(NCc1ncnn1-c1ccc(Cl)c(F)c1)NCc1ncnn1-c1ccc2cccnc2c1 [Compound 75, 1-{[1-(4-chloro-3-fluorophenyl)-1H-1,2,4-triazol-5-yl]methyl}-3-{[1-(quinolin-7-yl)-1H-1,2,4-triazol-5-yl]methyl}urea] | 33 nM | 47%
5 | O=C(NCc1ncnn1-c1ccc(Cl)c(F)c1)NCc1nnnn1-c1ccc2c(c1)OC(F)(F)O2 [Compound 76, 1-{[1-(4-chloro-3-fluorophenyl)-1H-1,2,4-triazol-5-yl]methyl}-3-{[1-(2,2-difluoro-2H-1,3-benzodioxol-5-yl)-1H-1,2,3,4-tetrazol-5-yl]methyl}urea] | 460 nM | 74%
6 | Cc1nc(CNC(=O)NCc2nc(C)nn2-c2ccc(Cl)c(F)c2)n(-c2ccc(Cl)c(F)c2)n1 [Compound 77, 1,3-bis({[1-(4-chloro-3-fluorophenyl)-3-methyl-1H-1,2,4-triazol-5-yl]methyl})urea] | 51 nM | 93%
7 | Cc1nc(CNC(=O)N(C)Cc2nc(C)nn2-c2ccc(Cl)c(F)c2)n(-c2ccc(Cl)c(F)c2)n1 [Compound 78, 1,3-bis({[1-(4-chloro-3-fluorophenyl)-3-methyl-1H-1,2,4-triazol-5-yl]methyl})-1-methylurea] | 110 nM | 88%
8 | Cc1nc(CNC(=O)NCc2ncnn2-c2ccc3cnccc3c2)n(-c2ccc(Cl)c(F)c2)n1 [Compound 82, 1-{[1-(4-chloro-3-fluorophenyl)-3-methyl-1H-1,2,4-triazol-5-yl]methyl}-3-{[1-(isoquinolin-6-yl)-1H-1,2,4-triazol-5-yl]methyl}urea] | 270 nM | 85%
9 | O=C(NCc1ncnn1-c1ccc2cccnc2c1)NCc1nc(C2CC2)nn1-c1ccc(Cl)c(F)c1 [Compound 83, 1-{[1-(4-chloro-3-fluorophenyl)-3-cyclopropyl-1H-1,2,4-triazol-5-yl]methyl}-3-{[1-(quinolin-7-yl)-1H-1,2,4-triazol-5-yl]methyl}urea] | 72 nM | 83%
10 | Cc1nc(CNC(=O)NCc2nc(C)nn2-c2ccc3cccnc3c2)n(-c2ccc3cccnc3c2)n1 [Compound 84, 1,3-bis({[3-methyl-1-(quinolin-7-yl)-1H-1,2,4-triazol-5-yl]methyl})urea] | 520 nM | 94%
11 | Cc1nc(CNC(=O)NCc2ncnn2-c2ccc(Cl)c(F)c2)n(-c2ccc3cccnc3c2)n1 [Compound 85, 1-{[1-(4-chloro-3-fluorophenyl)-1H-1,2,4-triazol-5-yl]methyl}-3-{[3-methyl-1-(quinolin-7-yl)-1H-1,2,4-triazol-5-yl]methyl}urea] | 36 nM | 67%
12 | Cc1nc(CNC(=O)NCc2nnnn2-c2ccc(Cl)c(F)c2)n(-c2ccc3cccnc3c2)n1 [Compound 86, 1-{[1-(4-chloro-3-fluorophenyl)-1H-1,2,3,4-tetrazol-5-yl]methyl}-3-{[3-methyl-1-(quinolin-7-yl)-1H-1,2,4-triazol-5-yl]methyl}urea] | 66 nM | 90%
13 | Cc1nc(CNC(=O)NCc2nc(C)nn2-c2ccc3cccnc3c2)n(-c2ccc(Cl)c(F)c2)n1 [Compound 87, 1-{[1-(4-chloro-3-fluorophenyl)-3-methyl-1H-1,2,4-triazol-5-yl]methyl}-3-{[3-methyl-1-(quinolin-7-yl)-1H-1,2,4-triazol-5-yl]methyl}urea] | 83 nM | 87%
14 | Cc1nc(CNC(=O)NCc2ncnn2-c2ccc3cncnc3c2)n(-c2ccc(Cl)c(F)c2)n1 [Compound 88, 1-{[1-(4-chloro-3-fluorophenyl)-3-methyl-1H-1,2,4-triazol-5-yl]methyl}-3-{[1-(quinazolin-7-yl)-1H-1,2,4-triazol-5-yl]methyl}urea] | 70 nM | 68%
15 | Cc1nc(CNC(=O)NCc2nn(C)c(=O)n2-c2ccc(Cl)c(F)c2)n(-c2ccc(Cl)c(F)c2)n1 [Compound 90, 3-{[4-(4-chloro-3-fluorophenyl)-1-methyl-5-oxo-4,5-dihydro-1H-1,2,4-triazol-3-yl]methyl}-1-{[1-(4-chloro-3-fluorophenyl)-3-methyl-1H-1,2,4-triazol-5-yl]methyl}urea] | 40 nM | 97%
16 | Cc1nc(CNC(=O)NCc2nc(CO)nn2-c2ccc(Cl)c(F)c2)n(-c2ccc3cccnc3c2)n1 [Compound 93, 1-{[1-(4-chloro-3-fluorophenyl)-3-(hydroxymethyl)-1H-1,2,4-triazol-5-yl]methyl}-3-{[3-methyl-1-(quinolin-7-yl)-1H-1,2,4-triazol-5-yl]methyl}urea] | 150 nM | 100%
17 | Cc1nc(CNC(=O)NCc2nc(CCO)nn2-c2ccc(Cl)c(F)c2)n(-c2ccc3cccnc3c2)n1 [Compound 94, 1-{[1-(4-chloro-3-fluorophenyl)-3-(2-hydroxyethyl)-1H-1,2,4-triazol-5-yl]methyl}-3-{[3-methyl-1-(quinolin-7-yl)-1H-1,2,4-triazol-5-yl]methyl}urea] | 730 nM | 87%
18 | COC(=O)c1cc(-n2nc(C)nc2CNC(=O)NCc2nc(C)nn2-c2ccc(Cl)c(F)c2)ccc1Cl [Compound 95, methyl 2-chloro-5-(5-{[({[1-(4-chloro-3-fluorophenyl)-3-methyl-1H-1,2,4-triazol-5-yl]methyl}carbamoyl)amino]methyl}-3-methyl-1H-1,2,4-triazol-1-yl)benzoate] | 68 nM | 87%

Next, values leading:

Row | AC50 | Emax | SMILES
19 | 13 nM | 41% | O=C(NCc1ncnn1-c1ccc(Cl)c(F)c1)NCc1ncnn1-c1ccc(Cl)c(F)c1 [Compound 66, 1,3-bis({[1-(4-chloro-3-fluorophenyl)-1H-1,2,4-triazol-5-yl]methyl})urea]
20 | 3100 nM | 65% | O=C(NCc1ncnn1-c1cc(F)cc(Cl)c1)NCc1ncnn1-c1cc(F)cc(Cl)c1 [Compound 68, 1,3-bis({[1-(3-chloro-5-fluorophenyl)-1H-1,2,4-triazol-5-yl]methyl})urea]
21 | 540 nM | 92% | COc1ccc(-n2nnnc2CNC(=O)NCc2nnnn2-c2ccc(OC)cc2)cc1 [Compound 69, 1,3-bis({[1-(4-methoxyphenyl)-1H-1,2,3,4-tetrazol-5-yl]methyl})urea]
22 | 110 nM | 64% | O=C(NCc1nnnn1-c1ccc(F)c(Cl)c1)NCc1nnnn1-c1ccc(F)c(Cl)c1 [Compound 70, 1,3-bis({[1-(3-chloro-4-fluorophenyl)-1H-1,2,3,4-tetrazol-5-yl]methyl})urea]
23 | 930 nM | 48% | O=C(NCc1ncnn1-c1ccc2ncccc2c1)NCc1ncnn1-c1ccc2ncccc2c1 [Compound 71, 1,3-bis({[1-(quinolin-6-yl)-1H-1,2,4-triazol-5-yl]methyl})urea]
24 | 2800 nM | 36% | Cc1ccc(-n2ncnc2CNC(=O)NCc2ncnn2-c2ccc(C)nc2)cn1 [Compound 74, 1,3-bis({[1-(6-methylpyridin-3-yl)-1H-1,2,4-triazol-5-yl]methyl})urea]
25 | 160 nM | 53% | Cc1ccc(-n2ncnc2CN(C)C(=O)NCc2nc(C)nn2-c2ccc(Cl)c(F)c2)cn1 [Compound 79, 3-{[1-(4-chloro-3-fluorophenyl)-3-methyl-1H-1,2,4-triazol-5-yl]methyl}-1-methyl-1-{[1-(6-methylpyridin-3-yl)-1H-1,2,4-triazol-5-yl]methyl}urea]
26 | 200 nM | 106% | O=C(NCc1ncnn1-c1ccc2cccnc2c1)NCc1nnnn1-c1ccc(Cl)c(F)c1 [Compound 80, 1-{[1-(4-chloro-3-fluorophenyl)-1H-1,2,3,4-tetrazol-5-yl]methyl}-3-{[1-(quinolin-7-yl)-1H-1,2,4-triazol-5-yl]methyl}urea]
27 | 280 nM | 64% | O=C(NCc1ncnn1-c1ccc2cccnc2c1)NCc1ncnn1-c1ccc2cccnc2c1 [Compound 81, 1,3-bis({[1-(quinolin-7-yl)-1H-1,2,4-triazol-5-yl]methyl})urea]
28 | 31 nM | 91% | Cc1nc(CNC(=O)NCc2n[nH]c(=O)n2-c2ccc(Cl)c(F)c2)n(-c2ccc(Cl)c(F)c2)n1 [Compound 89, 1-{[1-(4-chloro-3-fluorophenyl)-3-methyl-1H-1,2,4-triazol-5-yl]methyl}-3-{[4-(4-chloro-3-fluorophenyl)-5-oxo-4,5-dihydro-1H-1,2,4-triazol-3-yl]methyl}urea]
29 | 49 nM | 61% | O=C(NCc1ncnn1-c1ccc(Cl)c(F)c1)NCc1nc(C2CC2)nn1-c1ccc2cccnc2c1 [Compound 91, 1-{[1-(4-chloro-3-fluorophenyl)-1H-1,2,4-triazol-5-yl]methyl}-3-{[3-cyclopropyl-1-(quinolin-7-yl)-1H-1,2,4-triazol-5-yl]methyl}urea]
30 | 52 nM | 72% | CCc1nc(CNC(=O)NCc2ncnn2-c2ccc(Cl)c(F)c2)n(-c2ccc3cccnc3c2)n1 [Compound 92, 1-{[1-(4-chloro-3-fluorophenyl)-1H-1,2,4-triazol-5-yl]methyl}-3-{[3-ethyl-1-(quinolin-7-yl)-1H-1,2,4-triazol-5-yl]methyl}urea]
